Experimental data as given in patent US9790169B2, “IDO inhibitors” (BRISTOL-MYERS SQUIBB COMPANY, priority 2015, dated 2017).

Molecular target: human IDO1 (Homo sapiens, UniProt P14902)
Experiment: Assessment of human IDO-1 inhibitory activity in Hela cells (Interferon-gamma stimulated HeLa cells, Ehrlich reagent, absorbance 490 nm)
Format: cell-based
Set-up: endogenous in cells; host or cells: HeLa cells stimulated with interferon-gamma
Settings: Hela Human IDO-1 cellular assay
Procedure, shortened: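 HeLa cells pre-incubated with compound 1 h at 37 °C, then stimulated with human IFN-γ (10 ng/ml final) or murine IFN-γ (5 ng/ml final) for 18 h. Kynurenine read with Ehrlich reagent at 490 nm after TCA (3%) and 50 °C treatment; IC50 normalized to unstimulated (100%) and IFN-γ-only (0%) wells.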

human IDO1, sequence (P14902 whole entry): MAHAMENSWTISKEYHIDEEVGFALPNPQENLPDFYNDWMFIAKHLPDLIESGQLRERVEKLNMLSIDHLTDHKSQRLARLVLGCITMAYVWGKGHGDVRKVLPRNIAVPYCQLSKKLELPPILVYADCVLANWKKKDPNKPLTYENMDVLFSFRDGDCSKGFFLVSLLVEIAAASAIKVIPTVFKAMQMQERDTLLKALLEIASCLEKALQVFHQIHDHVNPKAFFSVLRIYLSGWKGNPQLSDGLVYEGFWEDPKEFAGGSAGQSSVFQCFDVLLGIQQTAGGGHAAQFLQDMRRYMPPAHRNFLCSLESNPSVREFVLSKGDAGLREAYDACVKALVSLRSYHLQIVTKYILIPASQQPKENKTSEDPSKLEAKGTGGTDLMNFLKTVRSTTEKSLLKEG

| SMILES | IC50 |
| --- | --- |
| CCCN(c1ccc([C@H](CC)CC(=O)O)cc1Nc1ccc(OC)nc1)C1CCOCC1 (single isomer, unassigned) [Example 553] | < 5 nM |
| CCC(CC(=O)O)c1ccc(N(CC)C2CCCOC2)c(Nc2cnc(OC)nc2)c1 (single isomer, unassigned) [Example 62, 3-(4-(ethyl(tetrahydro-2H-pyran-3-yl)amino)-3-((2-methoxypyrimidin-5-yl)amino)phenyl)pentanoic acid] | < 5 nM |
| CCOc1ncc(Nc2cc([C@H](COC)CC(=O)O)ccc2N2CCOCC2CC)cn1 (single isomer, unassigned) [Example 1291] | > 50 nM |
| CCC1COCCN1c1ccc([C@@H](COC)CC(=O)O)cc1Nc1cnc(OC)nc1 (single isomer, unassigned) [Example 1284] | > 50 nM |
| CCC(CC(=O)O)c1ccc(N(C)C2CCOCC2)c(Nc2ccc(Cl)cc2)c1 (single isomer, unassigned) [Example 867, 3-(3-((4-Chlorophenyl)amino)-4-(methyl(tetrahydro-2H-pyran-4-yl)amino)phenyl)pentanoic acid] | < 5 nM |
| CCC(CC(=O)O)c1ccc(N2CCOC(C)(C)C2)c(Nc2ccc(Cl)cc2)c1 (single isomer, unassigned) [Example 1319 E1, 3-(3-((4-Chlorophenyl)amino)-4-(2,2-dimethylmorpholino)phenyl)pentanoic acid] | < 50 nM |
| CCC(CC(=O)O)c1ccc(N(C)C2CCOCC2)c(Nc2cnc(OC)nc2)c1 (single isomer, unassigned) [Example 868, 3-(3-((2-methoxy-pyrimidin-5-yl)amino)-4-(methyl (tetrahydro-2H-pyran-4-yl)amino)phenyl) pentanoic acid] | < 50 nM |
| CCCN(c1ccc([C@@H](COC)CC(=O)O)cc1Nc1ccc(OC)nc1)C1CCOCC1 (single isomer, unassigned) [Example 565] | < 50 nM |
| COCCN(c1ccc(C(COC)CC(=O)O)cc1NC(=O)Nc1ccc(C)cc1)C1CCOCC1 (single isomer, unassigned) [Example 261 Enantiomer 1, 4-Methoxy-3-(4-((2-methoxyethyl)(tetrahydro-2H-pyran-4-yl)amino)-3-(3-(p-tolyl)ureido)phenyl)butanoic acid] | > 50 nM |
| CCOc1ncc(Nc2cc([C@H](CC)CNS(=O)(=O)c3c(C)noc3C)ccc2N(CC)C2CCOCC2)cn1 [Example 1328, (S)-N-(2-(3-((2-ethoxypyrimidin-5-yl)amino)-4-(ethyl(tetrahydro-2H-pyran-4-yl)amino)phenyl)butyl)-3,5-dimethylisoxazole-4-sulfonamide] | > 50 nM |
| CCC1COCCN1c1ccc([C@@H](COC)CC(=O)O)cc1Nc1ccc(Cl)cc1 (single isomer, unassigned) [Example 1286] | > 50 nM |
| CCC1COCCN1c1ccc([C@H](COC)CC(=O)O)cc1Nc1ccc(C#N)cn1 (single isomer, unassigned) [Example 1289] | > 50 nM |
| CCC(CC(=O)O)c1ccc(N2CCN(C(=O)OC(C)(C)C)CC2)c(Nc2ccc(C#N)cc2)c1 (single isomer, unassigned) [Example 674 Enantiomer 2, 3-(4-(4-(tert-Butoxycarbonyl)piperazin-1-yl)-3-((4-cyanophenyl)amino)phenyl)pentanoic acid] | > 50 nM |
| CCC1COCCN1c1ccc([C@H](COC)CC(=O)O)cc1Nc1ccc(C#N)cc1 (single isomer, unassigned) [Example 1287] | > 50 nM |
| CCOc1ncc(Nc2cc(C(CC)CC(=O)O)ccc2N2CCC(c3ccccc3)CC2)cn1 (single isomer, unassigned) [Example 47 Enantiomer 1, 3-(3-((2-Ethoxypyrimidin-5-yl)amino)-4-(4-phenylpiperidin-1-yl)phenyl)pentanoic acid] | < 5 nM |
| CCOc1ncc(Nc2cc(C(CC)CC(=O)O)cnc2N(CC)C2CCOCC2)cn1 (racemic) [Example 1378] | < 5 nM |
| CCN(c1ccc(C(CC)(CC)CC(=O)O)cc1Nc1cnc(OC)nc1)C1CCOCC1 [Example 28, 3-ethyl-3-(4-(ethyl(tetrahydro-2H-pyran-4-yl)amino)-3-((2-methoxypyrimidin-5-yl)amino)phenyl)pentanoic acid] | < 50 nM |
| COCC(CC(=O)O)c1ccc(N2C[C@@H](C)O[C@@H](C)C2)c(Nc2ccc(C#N)cc2)c1 (single isomer, unassigned) [602 E1] | > 50 nM |
| CCC(CC(=O)O)c1ccc(N(CC)C2CCS(=O)(=O)CC2)c(Nc2ccc(Cl)cc2)c1 (single isomer, unassigned) [Example 334 Enantiomer 1, 3-(3-((4-Chlorophenyl)amino)-4-((1,1-dioxidotetrahydro-2H-thiopyran-4-yl)(ethyl)amino)phenyl)pentanoic acid] | < 5 nM |
| CCN(c1cc(F)c(C(COC)CC(=O)O)cc1Nc1ccc(C#N)cc1F)C1CCOCC1 (single isomer, unassigned) [Example 847, 3-(5-((4-cyano-2-fluorophenyl)amino)-4-(ethyl (tetrahydro-2H-pyran-4-yl)amino)-2-fluorophenyl)-4-methoxybutanoic acid] | < 5 nM |
| CCN(c1cc(F)c([C@@H](COC)CC(=O)O)cc1Nc1ccc(C#N)cc1)C1CCOCC1 (single isomer, unassigned) [Example 843, 3-(5-((4-Cyanophenyl)amino)-4-(ethyl(tetrahydro-2H-pyran-4-yl)amino)-2-fluorophenyl)-4-methoxybutanoic acid] | < 5 nM |
| CCC(CC(=O)O)c1ccc(N2CCOC(C)(C)C2)c(NC(=O)Nc2ccc(Cl)cc2F)c1 (single isomer, unassigned) [Example 1322 E1, 3-(3-(3-(4-Chloro-2-fluorophenyl)ureido)-4-(2,2-dimethylmorpholino)phenyl)pentanoic acid] | > 50 nM |
| COCCN(c1ccc(C(C)(C)CC(=O)O)cc1NC(=O)Nc1ccc(C#N)cc1)C1CCOCC1 [Example 19, 3-(3-(3-(4-cyanophenyl)ureido)-4-((2-methoxyethyl)(tetrahydro-2H-pyran-4-yl)amino)phenyl)-3-methylbutanoic acid] | > 50 nM |
| CCC(CC(=O)O)c1ccc(N2CCOC[C@H]2C(C)C)c(Nc2ccc(C#N)cc2)c1 (single isomer, unassigned) [Example 887] | < 5 nM |
| CCOc1ncc(Nc2cc(C(CC)(CC)CC(=O)O)ccc2N(CC)C2CCOCC2)cn1 [Example 29, 3-(3-((2-ethoxypyrimidin-5-yl)amino)-4-(ethyl(tetrahydro-2H-pyran-4-yl)amino)phenyl)-3-ethylpentanoic acid] | < 5 nM |
| CCC(CC(=O)O)c1ccc(N(CCOC)C2CCOCC2)c(NC(=O)Nc2ccc(C)cc2)c1 (single isomer, unassigned) [Example 1264 E1, 3-(4-((2-Methoxyethyl)(tetrahydro-2H-pyran-4-yl)amino)-3-(3-(p-tolyl)ureido)phenyl)pentanoic acid] | > 50 nM |
| COCC(CC(=O)O)c1ccc(N2CCOC[C@H]2C(C)C)c(Nc2ccc(Cl)cc2)c1 (single isomer, unassigned) [Example 913] | < 5 nM |
| CCN(c1ccc(C(C)(C)CC(=O)O)cc1Nc1ccc(Cl)cc1)C1CCS(=O)(=O)CC1 [Example 180, 3-(3-((4-chlorophenyl)amino)-4-((1,1-dioxidotetrahydro-2H-thiopyran-4-yl)(ethyl)amino)phenyl)-3-methylbutanoic acid] | < 5 nM |
